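Method: 48-hour compound exposure of cells in 96-well plates, five concentrations, linear interpolation of endpoints. The concentration for full growth arrest is given as TGI.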
What was measured:
Test in all cases: growth of human tumour cells (NCI), 48 h
[1] = system: HCT-15 colon
[2] = system: HCT-116 colon
[3] = system: NCI/ADR-RES ovarian
[4] = system: UO-31 renal
[5] = system: PC-3 prostate
[6] = system: NCI-H522 lung
[7] = system: OVCAR-5 ovarian
[8] = system: HOP-92 NSCLC
[9] = system: TK-10 renal
[10] = system: U251 CNS
[11] = system: SK-MEL-2 melanoma
[12] = system: CAKI-1 renal
[13] = system: NCI-H460 lung
[14] = system: NCI-H226 lung
[15] = system: SK-MEL-5 melanoma
[16] = system: MOLT-4 leukemia
[17] = system: BT-549 breast
[18] = system: SF-268 CNS
[19] = system: MDA-N
[20] = system: OVCAR-3 ovarian
[21] = system: HOP-62 NSCLC
[22] = system: SF-539 CNS
[23] = system: SF-295 CNS
[24] = system: SK-MEL-28 melanoma
[25] = system: MALME-3M melanoma
[26] = system: SNB-75 CNS
[27] = system: UACC-62 melanoma
[28] = system: EKVX NSCLC
[29] = system: SN12C renal
[30] = system: CCRF-CEM leukemia
[31] = system: RPMI-8226 leukemia
[32] = system: COLO 205 colon
[33] = system: ACHN renal
[34] = system: OVCAR-4 ovarian
[35] = system: HT29 colon
[36] = system: RXF 393 renal
[37] = system: MCF7 breast
[38] = system: MDA-MB-231 breast
[39] = system: OVCAR-8 ovarian
[40] = system: 786-0 renal
[41] = system: HS 578T breast
[42] = system: T-47D breast
[43] = system: LOX IMVI melanoma
[44] = system: K-562 leukemia
[45] = system: DU-145 prostate
[46] = system: KM12 colon
[47] = system: NCI-H23 lung
[48] = system: SK-OV-3 ovarian
[49] = system: A498 renal
[50] = system: IGROV1 ovarian
[51] = system: SR leukemia
[52] = system: MDA-MB-435
[53] = system: M14 melanoma
[54] = system: A549 NSCLC
[55] = system: SNB-19 CNS
[56] = system: SW-620 colon
[57] = system: UACC-257 melanoma
[58] = system: HCC-2998 colon
[59] = system: HL-60(TB) leukemia

Measured: TGI

COc1ccc2nc(-c3ccc(O)cc3)cn2c1
62.6 µM: [15]
> 100 µM: [1] | [2] | [3] | [4] | [5] | [6] | [7] | [8] | [9] | [10] | [11] | [12] | [13] | [14] | [16] | [17] | [18] | [19] | [20] | [21] | [22] | [23] | [24] | [25] | [26] | [28] | [29] | [30] | [31] | [32] | [33] | [34] | [35] | [36] | [37] | [38] | [39] | [40] | [41] | [42] | [43] | [44] | [45] | [46] | [47] | [48] | [49] | [50] | [51] | [52] | [53] | [54] | [55] | [56]
86.2 µM: [27]

Cc1ccc2cccc(OC(=O)c3cc4c(cc3Cl)Sc3nccn3S4(=O)=O)c2n1
28.8 µM: [39]
18.1 µM: [45]
17 µM: [30]
18.7 µM: [46]
> 75.7 µM: [14]
14.7 µM: [5]
29.3 µM: [38]
47.4 µM: [25]
18.9 µM: [2]
23.9 µM: [44]
26.1 µM: [52]
68 µM: [8]
46.3 µM: [55]
25.4 µM: [57]
39.6 µM: [26]
38 µM: [6]
30.8 µM: [24]
30.9 µM: [9]
> 96 µM: [19]
27 µM: [15]
> 79.9 µM: [12]
32.6 µM: [27]
> 61.2 µM: [7]
43.6 µM: [40]
29 µM: [1]
19.8 µM: [16] | [43]
29.7 µM: [23]
44.5 µM: [35]
13.1 µM: [58]
7.03 µM: [31]
11.6 µM: [20]
40.3 µM: [56]
16.6 µM: [10]
19.4 µM: [21]
30.6 µM: [4]
16.7 µM: [51]
84.2 µM: [48]
18.4 µM: [37]
17.5 µM: [50]
48 µM: [28]
20.5 µM: [36]
25.1 µM: [34]
29.4 µM: [32]
28.5 µM: [54]
> 78.1 µM: [17]
10.4 µM: [13]
27.1 µM: [11]
45 µM: [49]
> 100 µM: [18] | [29] | [41]
25.7 µM: [53]
46.2 µM: [3]
13 µM: [42]
17.2 µM: [22]
38.7 µM: [33]
63.6 µM: [47]

O=C1/C(=c2\c3ccccc3n3c(=O)c4ccccc4nc23)Nc2ccccc21
> 85.7 µM: [41]
> 76.1 µM: [26]
> 100 µM: [1] | [2] | [3] | [4] | [5] | [6] | [7] | [8] | [9] | [57] | [10] | [11] | [12] | [13] | [14] | [15] | [17] | [18] | [20] | [21] | [22] | [23] | [24] | [25] | [27] | [28] | [29] | [30] | [31] | [32] | [33] | [34] | [35] | [36] | [37] | [38] | [39] | [40] | [58] | [42] | [43] | [44] | [45] | [46] | [47] | [48] | [49] | [50] | [51] | [53] | [54] | [55] | [56]
36.8 µM: [52]
33.6 µM: [19]
> 31.6 µM: [16]

CC(=O)OCC(OC(C)=O)C(OC(C)=O)C(OC(C)=O)C(/C=N\Nc1nc2ccccc2c(=O)[nH]1)OC(C)=O (stereo unspecified)
> 100 µM: [1] | [2] | [3] | [4] | [5] | [6] | [7] | [8] | [57] | [10] | [11] | [12] | [13] | [59] | [14] | [15] | [16] | [17] | [18] | [19] | [20] | [21] | [22] | [23] | [24] | [25] | [26] | [27] | [28] | [29] | [30] | [31] | [32] | [33] | [35] | [36] | [37] | [38] | [39] | [40] | [58] | [41] | [42] | [43] | [44] | [45] | [46] | [47] | [48] | [51] | [52] | [53] | [54] | [55] | [56]

Cc1nn(C(=O)c2ccncc2)c2c1C(c1ccccc1O)SC(N)=N2 (stereo unspecified)
> 10 µM: [1] | [2] | [3] | [5] | [6] | [7] | [8] | [9] | [57] | [10] | [11] | [12] | [13] | [59] | [14] | [15] | [16] | [17] | [18] | [19] | [20] | [21] | [22] | [23] | [24] | [25] | [26] | [27] | [28] | [29] | [30] | [31] | [32] | [33] | [34] | [35] | [36] | [37] | [38] | [39] | [40] | [58] | [41] | [42] | [43] | [44] | [45] | [46] | [47] | [48] | [50] | [51] | [52] | [53] | [54] | [55] | [56]

Cc1ccc(OCCn2cc(Nc3ccccc3)c(=O)[nH]c2=O)cc1
> 100 µM: [1] | [2] | [3] | [4] | [5] | [6] | [7] | [8] | [9] | [57] | [10] | [11] | [12] | [13] | [14] | [15] | [16] | [17] | [18] | [19] | [20] | [22] | [23] | [24] | [25] | [26] | [27] | [28] | [29] | [30] | [31] | [32] | [33] | [34] | [35] | [36] | [37] | [38] | [39] | [40] | [58] | [41] | [42] | [43] | [44] | [45] | [46] | [47] | [49] | [50] | [51] | [52] | [53] | [54] | [55] | [56]

O=C(O)C1CCCN1Cc1ccc2c(c1)OCO2 (stereo unspecified)
> 100 µM: [1] | [2] | [3] | [4] | [5] | [6] | [7] | [8] | [9] | [57] | [10] | [11] | [12] | [13] | [14] | [15] | [16] | [17] | [18] | [19] | [20] | [21] | [22] | [23] | [24] | [25] | [26] | [27] | [28] | [29] | [31] | [32] | [33] | [34] | [35] | [36] | [37] | [38] | [39] | [40] | [41] | [42] | [43] | [44] | [45] | [46] | [47] | [48] | [49] | [50] | [51] | [52] | [53] | [54] | [55] | [56]

Source: PubChem BioAssay (NCI)
